This is an account of results in ChEMBL document CHEMBL1201862, “PubChem BioAssay data set” (2004).

Calls of active or inactive are those of the source.

In experiment [1] the test system is HEK293. Put plainly: HEK293T cell viability loss, resazurin readout – resazurin fluorescence, cytotoxicity control for NF-kB activator project, SAR follow-up (AID 493251). The settings on record: Homo sapiens. Type of experiment: functional, cell-based. On the technique in general: Alamar Blue is a resazurin reagent that responds to reducing activity.
Experiment [2] has as its system HEK293. Put plainly: SAR Analysis of small molecule inhibitors of B-cell specific antigen receptor-induced NF-kB activation in a HEK-293T cell line using a luminescence assay - Set 2. [Related pubchem assays (depositor defined):AID435022, AID435025, AID489021]. The conditions noted are these: Homo sapiens. In kind it is functional, cell-based.
The next experiment deals with Jurkat. Put plainly: SAR Analysis of small molecule inhibitors of […] specific antigen receptor-induced NF-kB activation in a Jurkat cell line using a luminescence assay - Set 3. [Related pubchem assays (depositor defined):AID435022, AID435025, AID465]. Type of experiment: functional, cell-based. The conditions noted are these: Homo sapiens.
Experiment [3] addresses T1, DNA repair protein RAD52 homolog (Homo sapiens, UniProt P43351).
T1 sequence (P43351 whole entry): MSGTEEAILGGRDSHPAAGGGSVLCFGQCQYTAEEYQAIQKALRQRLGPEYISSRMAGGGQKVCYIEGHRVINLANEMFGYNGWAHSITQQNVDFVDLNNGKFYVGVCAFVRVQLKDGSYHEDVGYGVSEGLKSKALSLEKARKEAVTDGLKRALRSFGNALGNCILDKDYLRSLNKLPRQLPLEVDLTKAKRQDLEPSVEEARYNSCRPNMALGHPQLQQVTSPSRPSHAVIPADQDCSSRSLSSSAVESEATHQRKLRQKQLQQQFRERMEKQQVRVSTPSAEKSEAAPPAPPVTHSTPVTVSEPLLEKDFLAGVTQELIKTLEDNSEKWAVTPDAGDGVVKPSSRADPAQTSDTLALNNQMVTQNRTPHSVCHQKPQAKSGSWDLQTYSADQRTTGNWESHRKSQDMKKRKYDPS
In kind it is functional, biochemical.

For experiment [4], the target named is T2, DNA repair and recombination protein RAD54-like (Homo sapiens, UniProt Q92698).
T2 sequence (Q92698 whole entry): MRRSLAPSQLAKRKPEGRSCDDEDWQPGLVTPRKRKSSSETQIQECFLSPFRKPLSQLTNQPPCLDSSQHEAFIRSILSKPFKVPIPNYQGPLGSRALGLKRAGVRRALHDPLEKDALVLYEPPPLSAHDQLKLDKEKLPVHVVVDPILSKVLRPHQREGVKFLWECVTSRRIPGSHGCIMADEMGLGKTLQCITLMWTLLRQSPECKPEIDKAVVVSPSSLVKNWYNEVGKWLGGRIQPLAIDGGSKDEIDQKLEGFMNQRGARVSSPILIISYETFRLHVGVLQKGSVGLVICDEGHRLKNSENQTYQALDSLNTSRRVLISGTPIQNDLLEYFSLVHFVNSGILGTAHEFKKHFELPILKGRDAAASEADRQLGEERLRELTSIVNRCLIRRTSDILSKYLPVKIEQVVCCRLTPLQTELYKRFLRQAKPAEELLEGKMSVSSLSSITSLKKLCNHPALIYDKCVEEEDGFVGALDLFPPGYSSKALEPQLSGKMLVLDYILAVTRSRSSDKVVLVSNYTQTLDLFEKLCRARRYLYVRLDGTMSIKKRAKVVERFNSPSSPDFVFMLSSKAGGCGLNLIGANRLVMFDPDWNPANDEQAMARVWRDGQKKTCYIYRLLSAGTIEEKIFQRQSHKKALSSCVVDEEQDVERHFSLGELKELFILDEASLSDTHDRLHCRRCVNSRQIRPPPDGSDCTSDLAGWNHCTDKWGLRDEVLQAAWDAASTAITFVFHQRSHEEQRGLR
Put plainly: RAD54 Holliday junction migration blockers – biochemical, fluorescence, cherry-picked samples, dose series, confirmation (AID 651657). In kind it is functional.

Experiment [5] concerns the target Dual specificity tyrosine-phosphorylation-regulated kinase 1A (Rattus norvegicus, UniProt Q63470). In kind it is biochemical, Homo sapiens.
Experiment [6] has as its system HEK293. Put plainly: EBV LMP1 TES2 canonical NF-kB signalling blockers – cell-based, HEK293, luciferase, cherry-pick, dose response (AID 588343). Type of experiment: functional. The settings on record: Homo sapiens.
In experiment [7] the target is T3, Endoribonuclease toxin MazF (Escherichia coli K-12, UniProt P0AE70). Put plainly: substrate-only fluorescence increase artefacts – biochemical, single-stranded RNase substrate, counter-screen for MazEF activator project, dose response (AID 588502). In kind it is functional. In general terms: A counterscreen serves to expose hits that act by an unwanted route or on another target.
T3 sequence (P0AE70 whole entry): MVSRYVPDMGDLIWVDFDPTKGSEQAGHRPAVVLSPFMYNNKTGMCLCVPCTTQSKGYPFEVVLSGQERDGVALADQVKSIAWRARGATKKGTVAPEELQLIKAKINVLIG

Experiment [8] deals with T3, Endoribonuclease toxin MazF. Put plainly: activation of MazEF endoribonuclease cleavage – biochemical, fluorescence, single-stranded RNA substrate, uHTS hits, dose response (AID 588481). Type of experiment: functional.
Experiment [9] has as its target Serine/threonine-protein phosphatase (Candida dubliniensis (strain CD36 / CBS 7987 / NCPF 3949 / NRRLY-17841) (Yeast), UniProt B9W6M3). Put plainly: blockers of CaCl2-induced CDRE-lacZ signaling – S. cerevisiae, luminescence, secondary, dose response (AID 2388).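 Also: yeast reporter cells carrying a calcineurin-responsive lacZ construct stimulated with calcium chloride; luminescent beta-galactosidase reporter signal in whole cells rather than isolated phosphatase activity; potency for inhibition where a drop in reporter signal means calcineurin blockade.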 In kind it is functional, cell-based.
A further experiment deals with T4, Leucine aminopeptidase (Plasmodium falciparum 3D7, UniProt Q8IL11).
T4 sequence (Q8IL11 whole entry): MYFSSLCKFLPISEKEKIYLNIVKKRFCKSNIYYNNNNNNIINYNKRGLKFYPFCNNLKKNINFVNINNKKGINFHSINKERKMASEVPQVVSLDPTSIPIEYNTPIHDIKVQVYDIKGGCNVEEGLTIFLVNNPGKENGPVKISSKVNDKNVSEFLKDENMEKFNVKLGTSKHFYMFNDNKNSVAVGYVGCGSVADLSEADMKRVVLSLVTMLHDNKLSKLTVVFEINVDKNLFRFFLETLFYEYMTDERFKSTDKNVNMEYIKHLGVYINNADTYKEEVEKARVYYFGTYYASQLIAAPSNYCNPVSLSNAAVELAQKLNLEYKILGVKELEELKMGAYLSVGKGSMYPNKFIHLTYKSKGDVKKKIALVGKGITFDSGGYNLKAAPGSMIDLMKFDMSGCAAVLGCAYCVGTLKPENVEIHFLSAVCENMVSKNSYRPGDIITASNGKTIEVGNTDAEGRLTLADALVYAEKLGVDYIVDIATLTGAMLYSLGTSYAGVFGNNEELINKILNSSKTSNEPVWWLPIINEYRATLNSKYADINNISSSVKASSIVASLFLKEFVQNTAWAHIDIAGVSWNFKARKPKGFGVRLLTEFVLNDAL
In words: P. falciparum M17LAP inhibitors, primary screen, biochemical, fluorogenic H-Leu-NHMec substrate, 1536-well (AID 1619). Type of experiment: functional.

Experiment [10] has as its target ATP-dependent molecular chaperone HSP82 (Candida albicans (strain WO-1) (Yeast), UniProt C4YTQ8). In words: steroid-induced GRE reporter decrease in yeast – S. cerevisiae, luminescence, Hsp90 inhibitor project, dose response (AID 2400).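 Also: beta-galactosidase luminescence from glucocorticoid response element reporter as proxy for Hsp90 function; inhibitor potency where signal loss means Hsp90 inhibition.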 Type of experiment: functional, cell-based.
For another experiment, the target named is Phospholipase A2 (Homo sapiens, UniProt P04054). In kind it is functional.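 Also: confirmatory dose-response counterscreen on phospholipase A2, testing hits that came from an ultra-high-throughput screen for ATG4B inhibitors.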
Phospholipase A2, sequence (P04054 whole entry): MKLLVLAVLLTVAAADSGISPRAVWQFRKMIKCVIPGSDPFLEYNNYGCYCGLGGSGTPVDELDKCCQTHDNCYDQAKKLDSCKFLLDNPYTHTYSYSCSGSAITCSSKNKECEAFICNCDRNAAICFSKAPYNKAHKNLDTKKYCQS
A short description of experiment [11]: Luminescence Cell-Based Dose Confirmation HTS to Identify Inhibitors of Platelet Dense Granule Release. [Related pubchem assays: 1663 (Primary HTS), 1678 (Summary of Project)]. Type of experiment: functional.
For another experiment, the target named is Cysteine protease ATG4B (Homo sapiens, UniProt Q9Y4P1). Type of experiment: functional.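 Also: Fluorescence-based dose-response confirmation assay measuring inhibition of ATG4B activity.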
Cysteine protease ATG4B, sequence (Q9Y4P1 whole entry): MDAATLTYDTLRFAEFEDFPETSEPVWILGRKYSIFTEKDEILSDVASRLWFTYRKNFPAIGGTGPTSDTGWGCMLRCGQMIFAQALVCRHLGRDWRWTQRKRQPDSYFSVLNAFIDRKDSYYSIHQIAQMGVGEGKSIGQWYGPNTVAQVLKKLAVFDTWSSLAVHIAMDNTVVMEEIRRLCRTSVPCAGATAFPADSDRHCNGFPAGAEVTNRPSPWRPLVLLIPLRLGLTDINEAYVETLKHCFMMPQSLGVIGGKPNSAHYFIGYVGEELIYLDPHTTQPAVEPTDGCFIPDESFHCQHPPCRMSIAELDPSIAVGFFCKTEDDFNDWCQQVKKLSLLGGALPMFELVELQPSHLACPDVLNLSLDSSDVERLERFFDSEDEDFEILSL
The target in experiment [12] is Luciferin 4-monooxygenase (Photinus pyralis, UniProt P08659). Put plainly: inhibition of purified Photinus pyralis luciferase – biochemical, luminescence, dose response (AID 1891).
Luciferin 4-monooxygenase, sequence (P08659 whole entry): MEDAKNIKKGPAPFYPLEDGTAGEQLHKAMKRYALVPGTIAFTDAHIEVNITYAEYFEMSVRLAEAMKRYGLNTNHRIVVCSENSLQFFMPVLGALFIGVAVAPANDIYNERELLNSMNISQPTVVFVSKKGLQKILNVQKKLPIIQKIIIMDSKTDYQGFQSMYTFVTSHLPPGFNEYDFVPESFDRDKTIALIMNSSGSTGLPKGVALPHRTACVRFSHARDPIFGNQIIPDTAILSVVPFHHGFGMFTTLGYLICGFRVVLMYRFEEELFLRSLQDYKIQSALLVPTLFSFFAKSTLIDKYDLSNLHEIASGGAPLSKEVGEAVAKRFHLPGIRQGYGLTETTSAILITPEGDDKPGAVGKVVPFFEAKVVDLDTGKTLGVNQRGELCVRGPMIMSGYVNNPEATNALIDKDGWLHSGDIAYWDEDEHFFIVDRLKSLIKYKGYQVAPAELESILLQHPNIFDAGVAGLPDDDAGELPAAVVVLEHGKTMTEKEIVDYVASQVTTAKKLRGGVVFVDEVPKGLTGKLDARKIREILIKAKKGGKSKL

ATP-dependent molecular chaperone HSP82, sequence (C4YTQ8 whole entry): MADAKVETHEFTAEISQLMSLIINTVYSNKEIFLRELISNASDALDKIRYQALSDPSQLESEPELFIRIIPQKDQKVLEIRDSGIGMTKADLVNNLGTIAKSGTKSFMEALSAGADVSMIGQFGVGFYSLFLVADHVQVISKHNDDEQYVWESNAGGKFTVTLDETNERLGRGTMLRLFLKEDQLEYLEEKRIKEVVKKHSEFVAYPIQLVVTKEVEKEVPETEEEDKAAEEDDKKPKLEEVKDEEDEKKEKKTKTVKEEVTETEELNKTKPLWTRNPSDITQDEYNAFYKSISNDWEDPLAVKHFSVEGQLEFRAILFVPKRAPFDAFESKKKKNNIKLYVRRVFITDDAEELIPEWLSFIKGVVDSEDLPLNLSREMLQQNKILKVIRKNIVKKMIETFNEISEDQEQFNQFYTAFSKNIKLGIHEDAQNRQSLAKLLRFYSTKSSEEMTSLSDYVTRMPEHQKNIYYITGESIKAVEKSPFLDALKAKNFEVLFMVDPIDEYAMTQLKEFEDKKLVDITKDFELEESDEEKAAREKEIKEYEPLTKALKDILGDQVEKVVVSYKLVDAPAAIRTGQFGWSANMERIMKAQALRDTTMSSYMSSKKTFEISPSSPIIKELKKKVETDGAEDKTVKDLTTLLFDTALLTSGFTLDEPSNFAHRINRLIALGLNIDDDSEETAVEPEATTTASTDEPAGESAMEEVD
Serine/threonine-protein phosphatase, sequence (B9W6M3 whole entry): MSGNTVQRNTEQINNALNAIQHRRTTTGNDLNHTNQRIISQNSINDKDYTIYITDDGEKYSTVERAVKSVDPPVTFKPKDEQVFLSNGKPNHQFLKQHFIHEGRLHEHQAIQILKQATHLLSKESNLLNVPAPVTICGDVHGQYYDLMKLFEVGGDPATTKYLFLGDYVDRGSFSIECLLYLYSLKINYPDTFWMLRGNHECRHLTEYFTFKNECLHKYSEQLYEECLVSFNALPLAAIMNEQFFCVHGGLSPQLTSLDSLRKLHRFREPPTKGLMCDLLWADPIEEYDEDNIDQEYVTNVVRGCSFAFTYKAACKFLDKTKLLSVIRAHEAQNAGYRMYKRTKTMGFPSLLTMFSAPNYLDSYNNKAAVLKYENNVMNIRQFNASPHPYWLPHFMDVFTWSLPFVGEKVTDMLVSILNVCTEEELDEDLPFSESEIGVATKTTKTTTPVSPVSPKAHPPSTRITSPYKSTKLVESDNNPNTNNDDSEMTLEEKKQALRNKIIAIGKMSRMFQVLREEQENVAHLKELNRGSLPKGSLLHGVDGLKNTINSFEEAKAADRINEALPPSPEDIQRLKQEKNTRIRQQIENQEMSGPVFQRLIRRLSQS

Take `CNC(=O)CCc1nc(-c2ccc(Cl)cc2)no1`: the IC50 in the experiment on HEK293 [1], with HEK293 [2] and in the experiment on Jurkat was > 80 µM (inactive) throughout.
In the case of `Nc1cc2ccncc2c2ccccc12`, the half-maximal activity concentration (AC50) – broadly, the concentration at which the activity in the assay is half-maximal – in experiment [3] was 14.2 µM (active); in [4], 11.8 µM (active); in experiment [5], 1.23 µM (active); in the experiment with HEK293 [6], 9.97 µM (active).
Consider `Cc1cc(C)c(NC(=O)Cn2nnc(C(=O)NCc3ccc4c(c3)OCO4)c2N)c(C)c1`, for which the EC50 in experiment [7] and in experiment [8] was > 99 µM (inactive) in each case.
For `COc1ccc(-n2c(-c3cccc(C)c3[N+](=O)[O-])n[nH]c2=S)cc1`, the results for the EC50 in experiment [9] and in experiment [10] were > 180 µM (inactive) and > 150 µM (inactive), respectively. Further, on Leucine aminopeptidase, the concentration for half-maximal inhibition (IC50) (in general, the midpoint of a concentration-inhibition curve) was 23.8 µM (active).
Turning to `OC(CNCc1ccc(Cl)c(Cl)c1)c1ccccc1` (stereo unspecified), the concentration for half-maximal inhibition (IC50) at Phospholipase A2 was 9.81 µM (active); on Cysteine protease ATG4B it was 14.5 µM (active). Besides, the EC50 (usually the concentration at which the effect is half-maximal) in [11] was 19 µM (active); in [12] it was > 112 µM (not active).
